{"source": "patent US20090136549A1", "about": "“TRANSDERMAL PATCH CONTAINING RASAGILINE FOR TREATMENT OR PROPHYLAXIS OF NERVOUS SYSTEM DISEASE AND ITS PREPARATION PROCESS” (Chongqing Pharmaceutical Research Institute Co., Ltd., priority 2006, published 2009)", "origin": "cited, not measured here", "key": {"[1]": {"conditions": "oral administration"}, "patients with early PD": {"test_system": "patients with early PD", "conditions": "rasagiline 2 mg/d for 1 year"}}, "data": [{"smiles": "C#CCN[C@@H]1CCc2ccccc21", "note": "[rasagiline]", "values": [{"measurement": "reduction of blood peak concentration by eating", "setting": "[1]", "value": 60, "unit": "%"}, {"measurement": "mean UPDRS score lower than that of the patients administered with placebo in the last 6 months", "setting": "patients with early PD", "value": 2.29, "unit": "units"}, {"measurement": "mean UPDRS score lower than that of the patients administered with rasagiline 1 mg/d for 1 year", "setting": "patients with early PD", "value": 1.82, "unit": "units"}]}]}
